Values joined by “and” are separate entries in the source; they are usually repeats but may differ in a detail not shown here. Equal values may be shown once. Read-outs that look alike come from different tables or passages of the source.
Tests used:
[1] = test system: Escherichia coli ATCC 8739; assay: broth microdilution MIC, E. coli; assay type: cell-based
Experimental: (§1) The antimicrobial activities of the heteroaromatic ligands, Mn(II) complexes, and commercially available drug streptomycin were tested against standard bacterial strains: Staphylococcus aureus ATCC 6538P, Escherichia coli ATCC 8739, Pseudomonas aeruginosa PAO1 (biofilm model strain), and Pseudomonas aeruginosa LES B58 (clinical isolate). The P. aeruginosa PAO1 and LES B58 isolates were derived from the International Pseudomonas aeruginosa Reference Panel (http://bccm.belspo.be/about-us/bccm-lmg, accessed on 30 March 2021).
(§2) All bacteria species were cultivated in trypticase soy broth (TSB) medium (Biocorp, Warsaw, Poland) for 18 h at 37 °C with shaking (160 rpm). Overnight cultures of bacteria were diluted 1:100 into fresh TSB medium and then placed in each of the 96 wells of a microtiter transparent plate (Greiner, Monroe, NC, USA). The manganese(II) complexes—[Mn-pyOH-SO4]n, Mn-imCHO-NO3, Mn-imCHO-Cl, Mn-dipyCO-NO3—and the ligands—pyOH, pyCOOH—were prepared by dissolving compounds in distilled water. […] The starting stock solution was of 2-mM concentration.
(§3) The quantitative assay of the antibacterial activity was performed by the broth microdilution method, in 96-well microtiter plates, in order to establish the minimum inhibitory concentration (MIC). To this purpose, serial two-fold dilutions of the compounds ranging between 1 and 0.0625 mM were made. The details of the experiment were presented in our previous paper.

[2] = test system: Pseudomonas aeruginosa PAO1; assay: broth microdilution MIC, P. aeruginosa PAO1; assay type: cell-based; settings: P. aeruginosa PAO1, planktonic cells
Experimental: as §1, §2, §3

[3] = test system: Staphylococcus aureus ATCC 6538P; assay: broth microdilution MIC, S. aureus; assay type: cell-based
Experimental: as §1, §2, §3

[4] = test system: Pseudomonas aeruginosa LES B58; assay: broth microdilution MIC, P. aeruginosa LES B58; assay type: cell-based
Experimental: as §1, §2, §3

[5] = test system: pyoverdine secretion by P. aeruginosa PAO1; assay: pyoverdine production (spectrofluorometric); assay type: cell-based, Pseudomonas aeruginosa; settings: 0.5 mM complexes, 24 h, vs negative control (TSB medium with inoculated bacteria)
[6] = test system: P. aeruginosa PAO1 biofilm; assay: biofilm formation, crystal violet staining assay; assay type: cell-based, Pseudomonas aeruginosa; settings: for % Inhibit. Biofilm (0.25 mM) / % Inhibit. Biofilm (0.5 mM): P. aeruginosa PAO1, vs untreated control
Experimental: as §2
To evaluate the effect of the compounds on P. aeruginosa biofilm formation, a crystal violet staining assay was used, following previously described protocols. The concentration of the investigated compounds was in the range 0.0625–1 mM. The amount of biofilm formed was determined by measuring the absorbance at λ = 595 nm with the Infinite M200 PRO microplate reader (Tecan, Männedorf, Switzerland). The measurement results, expressed in absorbance units, were converted into percentages to allow the comparison of numerical data obtained in different experiments.

[7] = target: T1, catalase from the bovine liver (Bos taurus, UniProt P00432); assay: catalase activity in the presence of the Mn(II) complexes (absorbance at 240 nm); assay type: biochemical; settings: 0.5 mM complex, vs catalase alone
T1 construct: The catalase from the bovine liver solution; purchased Sigma–Aldrich; host or cells: bovine liver
T1 sequence (P00432 2-527 limits assumed): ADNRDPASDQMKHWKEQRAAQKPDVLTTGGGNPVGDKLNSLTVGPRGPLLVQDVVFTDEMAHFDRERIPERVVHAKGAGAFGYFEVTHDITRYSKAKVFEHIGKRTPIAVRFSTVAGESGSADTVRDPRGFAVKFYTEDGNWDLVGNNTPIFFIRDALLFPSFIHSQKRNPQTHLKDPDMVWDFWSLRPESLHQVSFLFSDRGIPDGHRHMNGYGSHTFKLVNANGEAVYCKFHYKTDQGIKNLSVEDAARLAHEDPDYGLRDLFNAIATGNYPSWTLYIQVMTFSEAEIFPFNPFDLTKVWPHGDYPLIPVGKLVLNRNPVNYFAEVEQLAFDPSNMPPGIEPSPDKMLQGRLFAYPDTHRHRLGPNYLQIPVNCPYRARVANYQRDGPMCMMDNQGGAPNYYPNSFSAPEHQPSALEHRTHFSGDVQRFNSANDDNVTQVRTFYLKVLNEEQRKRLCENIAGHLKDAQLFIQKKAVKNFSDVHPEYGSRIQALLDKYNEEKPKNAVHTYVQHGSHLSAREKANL
Experimental: First, the complexes were incubated with the catalase in the presence of a phosphate buffer, and then hydrogen peroxide was added thereto. To study the effect of the manganese complexes on the activity of CAT, its performance, in the presence of similar concentrations of the Mn complexes (0.5 mM), was investigated. The percentage of absorbance reduction over time was recorded at 240 nm. The positive control was the catalase sample in the absence of the Mn(II) complex. Figure 12 illustrates the effect of the Mn(II) complexes on the catalase activity.
The effect of the manganese complexes on the activity of catalase (CAT) was determined using the spectrophotometric method. The decrease in absorbance due to hydrogen peroxide depletion was recorded at 240 nm by the V-780 UV-Vis/NIR spectrophotometer (Jasco, Easton, MD, USA). The tests were performed in a 50-mM potassium phosphate buffer (PBS) at 37 °C, pH = 7.0. The catalase from the bovine liver solution (Sigma–Aldrich, St. Louis, MO, USA, lyophilized powder, ≥10,000 units/mg protein) was prepared in the PBS buffer as an initial dilution of ~1000 units/mL at 37 °C. The hydrogen peroxide solution, approximately 0.03% (w/w), was prepared by dilution in the PBS buffer to achieve the absorbance close to 1 a.u, and the PBS was used as a blank. The manganese complexes were diluted in the PBS buffer to stock the concentration of 1 mM. The mixture of 500 µL of the hydrogen peroxide, 1 µL of the catalase (final 1U of catalase activity), and 500 µL of the manganese complexes, previously incubated in a water bath at 37 °C, was added to a quartz cuvette (10 mm, 1 mL), closed by a cover, and placed in the spectrophotometer. The absorbance readings were performed in 10-s intervals during the first minute of the incubation time at 37 °C. The results were presented as the dependence on the percentage of the absorbance reduction over time.

[8] = test system: primary human fibroblasts (VH10); assay: cytotoxicity, MTT test; assay type: cell-based; settings: VH10 cells, 24 h, 15–1000 µM
Experimental: Primary human fibroblasts (VH10) were cultured at 37 °C in a humidified 5% CO2 atmosphere in plastic dishes in Dulbecco’s modified eagle medium (DMEM) supplemented with 10% heat inactivated fetal calf serum, 2 mM of l-glutamine, and antibiotics (100 units/mL penicillin and 100 µg/mL streptomycin). Cytotoxic properties of manganese complexes were measured by EZcount^TM MTT cell assay kit (HiMedia Laboratories Pvt., Ltd., Mumbai, India) in accordance with the manufacturer’s instructions. Cells were seeded into a 96-well plate and incubated with manganese complexes in the concentration range of 15–1000 µM for 24 h at 37 °C in a humidified atmosphere of 5% CO2. After incubation, a solution of MTT (3-[4,5-dimethylthiazol-2-yl]-2, 5-diphenyl tetrazolium bromide) at a concentration (1 mg/mL) was added to each well. After incubation at 37 °C for 4 h, 100 µL of 0.04 M HCl in isopropanol was added to each well and mixed thoroughly to dissolve the dark blue crystals. The measurement of absorbance of the solution related to the number of live cells was conducted on a TECAN Spark Microplate Reader (TECAN, Männedorf, Switzerland) at 570 nm with a reference wavelength 600 nm. All samples were tested in three independent experiments. Results were normalized to the control.
Inhibitory concentrations (IC50) represent the concentrations of the tested samples required to inhibit 50% cell proliferation and were calculated from the mean values of data from wells.

[9] = P. aeruginosa LES B58, planktonic cells
[10] = Escherichia coli, ATCC8739, planktonic cells, read-out: MIC
[11] = Pseudomonas aeruginosa, read-out: MIC
[12] = Staphylococcus aureus, ATCC6538P, S. aureus, planktonic cells, read-out: MIC
[13] = Pseudomonas aeruginosa, LESB58, P. aeruginosa LES B58, planktonic cells, read-out: MIC

| Structure (SMILES) | MIC ([1]; planktonic cells) | MIC [2] | MIC ([3]; S. aureus, planktonic cells) | MIC [4, 9] | also measured |
| --- | --- | --- | --- | --- | --- |
| O.O.O.O.O=[N+]([O-])[O-].O=[N+]([O-])[O-].[Mn+2] [Mn(NO3)2·4H2O] | > 1 mM and > 251 μg/ml | > 1 mM and > 251 μg/ml | > 1 mM and > 251 μg/ml | > 1 mM and > 251 μg/ml |  |
| [H]/N=C(/N)N[C@H]1[C@H](O)[C@@H](O)[C@H](O[C@@H]2O[C@@H](C)[C@](O)(C=O)[C@H]2O[C@@H]2O[C@@H](CO)[C@H](O)[C@@H](O)[C@@H]2NC)[C@@H](N/C(N)=N\[H])[C@@H]1O [Streptomycin, reference compound] |  |  |  |  | MIC [1, 10]: 62.5 µM and 36 µg/mL; MIC [2, 11]: 62.5 µM and 36 µg/mL; MIC ([3]; Staphylococcus aureus, ATCC6538P): 125 µM; MIC [3, 12]: 73 µg/mL; MIC ([4]; Pseudomonas aeruginosa, LESB58): 125 µM; MIC [4, 13]: 73 µg/mL; decrease of pyoverdine production [5]: 96% |
| O=C(c1ccccn1)c1ccccn1 [dipyCO, dipyridin-2-ylmethanone] |  |  |  |  | inhibition at 1000 µM ([6]; Pseudomonas aeruginosa, PAO1, 1 mM, P. aeruginosa biofilm): 49%; MIC [1, 10]: > 1000 µM and > 184 µg/mL; MIC [2, 11]: > 1000 µM and > 184 µg/mL; MIC [3, 12]: > 1000 µM and > 184 µg/mL; MIC [4, 13]: > 1000 µM and > 184 µg/mL |
| OCc1ccccn1 [pyOH, 2-hydroxymethylpyridyne] | > 1 mM and > 109 μg/ml | > 1 mM and > 109 μg/ml | > 1 mM and > 109 μg/ml | > 1 mM and > 109 μg/ml |  |
| O=C(c1ccccn1)c1ccccn1.O=C(c1ccccn1)c1ccccn1.O=[N+]([O-])[O-].O=[N+]([O-])[O-].[Mn+2] [Mn-dipyCO-NO3] | > 1 mM and > 547 μg/ml | > 1 mM and > 547 μg/ml | > 1 mM and > 547 μg/ml | > 1 mM and > 547 μg/ml | % Inhibit. Biofilm (0.25 mM) [6]: 21%; % Inhibit. Biofilm (0.5 mM) [6]: 36%; Action on catalase activity [7]: attenuate the catalase activity |
| Cc1[nH]cnc1C=O.Cc1[nH]cnc1C=O.[Cl-].[Cl-].[Mn+2] [Mn-imCHO-Cl] | > 1 mM and > 346 μg/ml | > 1 mM and > 346 μg/ml | > 1 mM and > 346 μg/ml | > 1 mM and > 346 μg/ml | IC50 [8]: > 1 mM; % Inhibit. Biofilm (0.25 mM) [6]: 24%; % Inhibit. Biofilm (0.5 mM) [6]: 29%; Action on catalase activity [7]: attenuate the catalase activity |

The next lines start with results.

| MIC ([1]; planktonic cells) | MIC [2] | MIC ([3]; S. aureus, planktonic cells) | MIC [4, 9] | Structure (SMILES) | also measured |
| --- | --- | --- | --- | --- | --- |
| > 1 mM and > 198 μg/ml | > 1 mM and > 198 μg/ml | > 1 mM and > 198 μg/ml | > 1 mM and > 198 μg/ml | O.O.O.O.[Cl][Mn][Cl] [MnCl2·4H2O] |  |
| > 1 mM and > 110 μg/ml | > 1 mM and > 110 μg/ml | > 1 mM and > 110 μg/ml | > 1 mM and > 110 μg/ml | Cc1nc[nH]c1C=O [imCHO, 5(4)-carbaldehyde-4(5)-methylimidazole] |  |
| > 1 mM and > 167 μg/ml | > 1 mM and > 167 μg/ml | > 1 mM and > 167 μg/ml | > 1 mM and > 167 μg/ml | O=C(O)c1cccnc1C(=O)O [pyCOOH, pyridine-2,3-dicarboxylic anion] |  |
| > 1 mM and > 169 μg/ml | > 1 mM and > 169 μg/ml | > 1 mM and > 169 μg/ml | > 1 mM and > 169 μg/ml | O.O=S(=O)([O-])[O-].[Mn+2] [MnSO4·H2O] |  |

From PMC8124774, “Tuning Anti-Biofilm Activity of Manganese(II) Complexes: Linking Biological Effectiveness of Heteroaromatic Complexes of Alcohol, Aldehyde, Ketone, and Carboxylic Acid with Structural Effects and Redox Activity” (International Journal of Molecular Sciences, 2021)
